According to patent US8962681B2, “Use of aminoacetonitrile derivatives against endoparasites” (Zoetis LLC, priority 2011, dated 2015):

tested on: Dirofilaria immitis microfilariae; experiment: in vitro microwell motility assay against heartworm microfilariae; type: cell-based; conditions: microfilaria from canine blood, 384 well plate, 72 hours incubation at 37° C. and 5% CO2, LemnaTec Scanalyzer

Point of comparison: `CC(C#N)(COCc1ccc(C(F)(F)F)cc1)NC(=O)c1ccc(S(F)(F)(F)(F)F)cc1` (stereo not drawn) [test compound 84, N-(1-cyano-1-methyl-2-{[4-(trifluoromethyl)benzyl]oxy}ethyl)-4-(pentafluorothio)benzamide], “ED50 (dose at which the overall microfilaria motility was reduced by 50% compared to that of an untreated control)” value 3.3 µM. Against it:
- CC(C#N)(COc1cc(C#N)ccc1C(F)(F)F)NC(=O)c1ccc(S(F)(F)(F)(F)F)cc1 (stereo not drawn) [test compound 3, N-{1-cyano-2-[5-cyano-2-(trifluoromethyl)phenoxy]-1-methylethyl}-4-(pentafluorothio)benzamide] — 3-fold higher, 10 µM
- Cc1ccc(Oc2ccc(C#N)cc2OCC(C)(C#N)NC(=O)c2ccc(S(F)(F)(F)(F)F)cc2)c(Cl)c1 (stereo not drawn) [test compound 71, N-{2-[2-(2-chloro-4-methylphenoxy)-5-cyanophenoxy]-1-cyano-1-methylethyl}-4-(pentafluorothio)benzamide] — 3.3-fold lower, 1 µM
- CC(C#N)(COc1cc(Br)ccc1C#N)NC(=O)c1ccc(S(F)(F)(F)(F)F)cc1 (stereo not drawn) [test compound 36, N-[2-(5-bromo-2-cyanophenoxy)-1-cyano-1-methylethyl]-4-(pentafluorothio)-benzamide] — 3-fold higher, 10 µM
- CC(C#N)(COc1cc(C#N)ccc1Oc1ccc(C(F)(F)F)cc1)NC(=O)c1ccc(S(F)(F)(F)(F)F)cc1 (stereo not drawn) [test compound 67, N-(1-cyano-2-{5-cyano-2-[4-(trifluoromethyl)phenoxy]phenoxy}-1-methylethyl)-4-(pentafluorothio)benzamide] — 3.3-fold lower, 1 µM
- CC(C#N)(COc1ccc(Cl)cc1F)NC(=O)c1ccc(S(F)(F)(F)(F)F)cc1 (stereo not drawn) [test compound 20, N-[2-(4-chloro-2-fluorophenoxy)-1-cyano-1-methylethyl]-4-(pentafluorothio)-benzamide] — 3-fold higher, 10 µM
- Cc1ccc(Oc2ccc(C#N)cc2OCC(C)(C#N)NC(=O)c2ccc(S(F)(F)(F)(F)F)cc2)c(C)c1 (stereo not drawn) [test compound 72, N-{1-cyano-2-[5-cyano-2-(2,4-dimethylphenoxy)phenoxy]-1-methylethyl}-4-(pentafluorothio)benzamide] — 3.3-fold lower, 1 µM
- COc1ccc(Oc2ccc(C#N)cc2OCC(C)(C#N)NC(=O)c2ccc(S(F)(F)(F)(F)F)cc2)c(F)c1F (stereo not drawn) [test compound 76, N-{1-cyano-2-[5-cyano-2-(2,3-difluoro-4-methoxyphenoxy)phenoxy]-1-methylethyl}-4-(pentafluorothio)benzamide] — 3-fold higher, 10 µM
- CC(C#N)(COc1cc(Cl)ccc1Cl)NC(=O)c1ccc(S(F)(F)(F)(F)F)cc1 (stereo not drawn) [test compound 39, N-[1-cyano-2-(2,5-dichlorophenoxy)-1-methylethyl]-4-(pentafluorothio)benzamide] — 3-fold higher, 10 µM
- CC(C#N)(NC(=O)c1ccc(S(F)(F)(F)(F)F)cc1)C1Cc2cc(C#N)cc(C(F)(F)F)c2O1 (stereo not drawn) [test compound 83, N-{1-cyano-1-[5-cyano-7-(trifluoromethyl)-2,3-dihydro-1-benzofuran-2-yl]ethyl}-4-(pentafluorothio)benzamide] — 3-fold higher, 10 µM
- COc1ccc(Oc2ccc(C#N)cc2OCC(C)(C#N)NC(=O)c2ccc(S(F)(F)(F)(F)F)cc2)c(Cl)c1 (stereo not drawn) [test compound 75, N-{2-[2-(2-chloro-4-methoxyphenoxy)-5-cyanophenoxy]-1-cyano-1-methylethyl}-4-(pentafluorothio)benzamide] — the same, 3.3 µM
- CSc1ccc(COCC(C)(C#N)NC(=O)c2ccc(S(F)(F)(F)(F)F)cc2)cc1 (stereo not drawn) [test compound 53, N-(1-cyano-1-methyl-2-{[4-(methylthio)benzyl]oxy}ethyl)-4-(pentafluorothio)benzamide] — 3-fold higher, 10 µM
- COc1ccc(Oc2ccc(C#N)cc2OCC(C)(C#N)NC(=O)c2ccc(S(F)(F)(F)(F)F)cc2)cc1 (stereo not drawn) [test compound 66, N-{1-cyano-2-[5-cyano-2-(4-methoxyphenoxy)phenoxy]-1-methylethyl}-4-(pentafluorothio)benzamide] — the same, 3.3 µM
- CC(C#N)(COc1cc(C#N)ccc1Oc1ccc(Cl)cc1F)NC(=O)c1ccc(S(F)(F)(F)(F)F)cc1 (stereo not drawn) [test compound 62, N-{2-[2-(4-chloro-2-fluorophenoxy)-5-cyanophenoxy]-1-cyano-1-methylethyl}-4-(pentafluorothio)benzamide] — 3.3-fold lower, 1 µM
- CC(C#N)(COc1cc(C#N)ccc1OC(F)(F)F)NC(=O)c1ccc(S(F)(F)(F)(F)F)cc1 (stereo not drawn) [test compound 55, N-{1-cyano-2-[5-cyano-2-(trifluoromethoxy)phenoxy]-1-methylethyl}-4-(pentafluorothio)benzamide] — 3-fold higher, 10 µM
- CC(C#N)(COc1c(F)cc(F)cc1C#N)NC(=O)c1ccc(S(F)(F)(F)(F)F)cc1 (stereo not drawn) [test compound 54, N-[1-cyano-2-(2-cyano-4,6-difluorophenoxy)-1-methylethyl]-4-(pentafluorothio)-benzamide] — 10-fold higher, 33 µM
- CC(C#N)(COc1ccc(Cl)c(Cl)c1)NC(=O)c1ccc(S(F)(F)(F)(F)F)cc1 (stereo not drawn) [test compound 38, N-[1-cyano-2-(3,4-dichlorophenoxy)-1-methylethyl]-4-(pentafluorothio)benzamide] — 10-fold higher, 33 µM
- CC(C#N)(Cc1ccc(C#N)cc1Cl)NC(=O)c1ccc(S(F)(F)(F)(F)F)cc1 (stereo not drawn) [test compound 90, N-[2-(2-chloro-4-cyanophenyl)-1-cyano-1-methylethyl]-4-(pentafluorothio)benzamide] — 10-fold higher, 33 µM
- CC(C#N)(COc1cc(C#N)ccc1Oc1ccc(Cl)cc1Cl)NC(=O)c1ccc(S(F)(F)(F)(F)F)cc1 (stereo not drawn) [test compound 65, N-{1-cyano-2-[5-cyano-2-(2,4-dichlorophenoxy)phenoxy]-1-methylethyl}-4-(pentafluorothio)benzamide] — the same, 3.3 µM
- CC(C#N)(COc1cc(C#N)cc(C(F)(F)F)c1)NC(=O)c1ccc(S(F)(F)(F)(F)F)cc1 (stereo not drawn) [test compound 5, N-{1-cyano-2-[3-cyano-5-(trifluoromethyl)phenoxy]-1-methylethyl}-4-(pentafluorothio)benzamide] — the same, 3.3 µM
- COc1ccc(OCC(C)(C#N)NC(=O)c2ccc(S(F)(F)(F)(F)F)cc2)cc1C#N (stereo not drawn) [test compound 41, N-[1-cyano-2-(3-cyano-4-methoxyphenoxy)-1-methylethyl]-4-(pentafluorothio)-benzamide] — 10-fold higher, 33 µM
- COc1cc(O)ccc1Oc1ccc(C#N)cc1OCC(C)(C#N)NC(=O)c1ccc(S(F)(F)(F)(F)F)cc1 (stereo not drawn) [test compound 79, N-{1-cyano-2-[5-cyano-2-(4-hydroxy-2-methoxyphenoxy)phenoxy]-1-methylethyl}-4-(pentafluorothio)benzamide] — 3-fold higher, 10 µM
- COc1c(F)cc(Oc2ccc(C#N)cc2OCC(C)(C#N)NC(=O)c2ccc(S(F)(F)(F)(F)F)cc2)cc1F (stereo not drawn) [test compound 78, N-{1-cyano-2-[5-cyano-2-(3,5-difluoro-4-methoxyphenoxy)phenoxy]-1-methylethyl}-4-(pentafluorothio)benzamide] — 3.3-fold lower, 1 µM
- CC(C#N)(COc1ccc(C#N)cc1OC(F)(F)F)NC(=O)c1ccc(S(F)(F)(F)(F)F)cc1 (stereo not drawn) [test compound 56, N-{1-cyano-2-[4-cyano-2-(trifluoromethoxy)phenoxy]-1-methylethyl}-4-(pentafluorothio)benzamide] — the same, 3.3 µM
- CC(C#N)(COc1cc(C#N)ccc1Cl)NC(=O)c1ccc(S(F)(F)(F)(F)F)cc1 (stereo not drawn) [test compound 57, N-[2-(2-chloro-5-cyanophenoxy)-1-cyano-1-methylethyl]-4-(pentafluorothio)-benzamide] — 3-fold higher, 10 µM
- CC(C#N)(COc1cccc(Cl)c1C(F)(F)F)NC(=O)c1ccc(S(F)(F)(F)(F)F)cc1 (stereo not drawn) [test compound 50, N-{2-[3-chloro-2-(trifluoromethyl)phenoxy]-1-cyano-1-methylethyl}-4-(pentafluorothio)benzamide] — 10-fold higher, 33 µM
- CC(C#N)(COc1cccc(Cl)c1C#N)NC(=O)c1ccc(S(F)(F)(F)(F)F)cc1 (stereo not drawn) [test compound 17, N-[2-(3-chloro-2-cyanophenoxy)-1-cyano-1-methylethyl]-4-(pentafluorothio)-benzamide] — 3-fold higher, 10 µM
- CC(C#N)(COc1cc(C#N)ccc1Br)NC(=O)c1ccc(S(F)(F)(F)(F)F)cc1 (stereo not drawn) [test compound 27, N-[2-(2-bromo-5-cyanophenoxy)-1-cyano-1-methylethyl]-4-(pentafluorothio)-benzamide] — the same, 3.3 µM
- COc1cc(F)c(Oc2ccc(C#N)cc2OCC(C)(C#N)NC(=O)c2ccc(S(F)(F)(F)(F)F)cc2)c(F)c1 (stereo not drawn) [test compound 77, N-{1-cyano-2-[5-cyano-2-(2,6-difluoro-4-methoxyphenoxy)phenoxy]-1-methylethyl}-4-(pentafluorothio)benzamide] — 3-fold higher, 10 µM
- CC(C#N)(COc1cc(C#N)ccc1Oc1ccc(F)cc1)NC(=O)c1ccc(S(F)(F)(F)(F)F)cc1 (stereo not drawn) [test compound 61, N-{1-cyano-2-[5-cyano-2-(4-fluorophenoxy)phenoxy]-1-methylethyl}-4-(pentafluorothio)benzamide] — 3.3-fold lower, 1 µM
